Results taken from ChEMBL document CHEMBL3044829, “New carbodithioate derivatives: synthesis, characterization, and in vitro antibacterial, antifungal, antitubercular, and antimalarial activity” (Med Chem Res, 2013).
Converted amounts (≈) assume the structure as drawn.

What was measured:
[1] = tested on: Mycobacterium tuberculosis; assay: Antitubercular activity against Mycobacterium tuberculosis H37Rv MTCC 200 assessed as growth inhibition by BACTEC MGIT method; format: functional
[2] = tested on: Staphylococcus aureus; assay: Antimicrobial activity against Staphylococcus aureus MTCC 96 assessed as growth inhibition by broth microdilution method; format: functional
[3] = tested on: Aspergillus niger; assay: Antimicrobial activity against Aspergillus niger MTCC 282 assessed as growth inhibition by broth microdilution method; format: functional
[4] = tested on: Pseudomonas aeruginosa; assay: Antimicrobial activity against Pseudomonas aeruginosa MTCC 1688 assessed as growth inhibition by broth microdilution method; format: functional
[5] = tested on: Mycobacterium tuberculosis; assay: Antitubercular activity against Mycobacterium tuberculosis H37Rv MTCC 200 assessed as growth inhibition at 6.25 ug/ml by BACTEC MGIT method; format: functional
[6] = tested on: Escherichia coli; assay: Antimicrobial activity against Escherichia coli MTCC 443 assessed as growth inhibition by broth microdilution method; format: functional
[7] = tested on: Bacillus subtilis; assay: Antimicrobial activity against Bacillus subtilis MTCC 441 assessed as growth inhibition by broth microdilution method; format: functional
[8] = tested on: Klebsiella pneumoniae; assay: Antimicrobial activity against Klebsiella pneumoniae MTCC 109 assessed as growth inhibition by broth microdilution method; format: functional
[9] = tested on: Aspergillus clavatus; assay: Antimicrobial activity against Aspergillus clavatus MTCC 1323 assessed as growth inhibition by broth microdilution method; format: functional
[10] = tested on: Vero; assay: Cytotoxicity against Chlorocebus aethiops (African green monkey) Vero cells assessed as inhibition of cell viability at equal to and greater than MIC for Mycobacterium tuberculosis H37Rv after 72 hr by MTT assay; format: cell-based; settings: chlorocebus sabaeus
[11] = tested on: Plasmodium falciparum; assay: Antimalarial activity against chloroquine-sensitive Plasmodium falciparum 3D7 assessed as inhibition of complete maturation into schizonts after 40 hr; format: functional; settings: 3D7, 40 h
[12] = tested on: Mycobacterium tuberculosis; assay: Antitubercular activity against Mycobacterium tuberculosis H37Rv MTCC 200 assessed as growth inhibition at MIC by L.J. MIC method; format: functional
[13] = tested on: Streptococcus pyogenes; assay: Antimicrobial activity against Streptococcus pyogenes MTCC 442 assessed as growth inhibition by broth microdilution method; format: functional
[14] = tested on: Candida albicans; assay: Antimicrobial activity against Candida albicans MTCC 227 assessed as growth inhibition by broth microdilution method; format: functional
[15] = tested on: Mycobacterium tuberculosis; assay: Antitubercular activity against Mycobacterium tuberculosis H37Rv MTCC 200 assessed as growth inhibition by L.J. MIC method; format: functional

O=C1C(=O)N(CCCSC(=S)N2CCN(c3ccc(Cl)c(Cl)c3)CC2)c2ccc([N+](=O)[O-])cc21
MIC [1]: 6.25 µg/mL (≈ 11.6 µM)
MIC99 [2]: 500 µg/mL
MIC99 [3]: 250 µg/mL
MIC99 [4]: 200 µg/mL
inhibition at 6.25 µg/mL [5]: 99%
MIC99 [6]: 100 µg/mL
MIC99 [7]: 250 µg/mL
MIC99 [8]: 100 µg/mL
MIC99 [9]: 200 µg/mL
Activity [10]: Non-toxic
MIC [11]: 0.5 µg/mL (≈ 0.927 µM)
inhibition (Growth inhibition) [12]: 96%
MIC99 [13]: 250 µg/mL
MIC99 [14]: 500 µg/mL
MIC [15]: 100 µg/mL (≈ 185 µM)

NC(=O)c1cnccn1 [PYRAZINAMIDE]
MIC [1]: 6.25 µg/mL (≈ 50.8 µM)
inhibition at 6.25 µg/mL [5]: 99%

O=C1C(=O)N(CCCSC(=S)N2CCN(c3ccc(Cl)c(Cl)c3)CC2)c2ccc(F)cc21
MIC [1]: 6.25 µg/mL (≈ 12.2 µM)
MIC99 [2]: 500 µg/mL
MIC99 [3]: 200 µg/mL
MIC99 [4]: 250 µg/mL
inhibition at 6.25 µg/mL [5]: 99%
MIC99 [6]: 250 µg/mL
MIC99 [7]: 500 µg/mL
MIC99 [8]: 100 µg/mL
MIC99 [9]: 250 µg/mL
Activity [10]: Non-toxic
MIC [11]: 0.092 µg/mL (≈ 0.18 µM)
inhibition (Growth inhibition) [12]: 98%
MIC99 [13]: 250 µg/mL
MIC99 [14]: 500 µg/mL
MIC [15]: 6.25 µg/mL (≈ 12.2 µM)

CO[C@H]1/C=C/O[C@@]2(C)Oc3c(C)c(O)c4c(O)c(c(/C=N/N5CCN(C)CC5)c(O)c4c3C2=O)NC(=O)/C(C)=C\C=C\[C@H](C)[C@H](O)[C@@H](C)[C@@H](O)[C@@H](C)[C@H](OC(C)=O)[C@@H]1C [RIFAMPIN]
MIC [1]: 0.25 µg/mL (≈ 0.304 µM)
inhibition at 6.25 µg/mL [5]: 99%

O=C1C(=O)N(CCSC(=S)N2CCN(c3ccc(Cl)c(Cl)c3)CC2)c2ccc([N+](=O)[O-])cc21
MIC [1]: 6.25 µg/mL (≈ 11.9 µM)
MIC99 [2]: 62.5 µg/mL
MIC99 [3]: 100 µg/mL
MIC99 [4]: 62.5 µg/mL
inhibition at 6.25 µg/mL [5]: 99%
MIC99 [6]: 100 µg/mL
MIC99 [7]: 100 µg/mL
MIC99 [8]: 100 µg/mL
MIC99 [9]: 100 µg/mL
Activity [10]: Non-toxic
MIC [11]: 0.072 µg/mL (≈ 0.137 µM)
inhibition (Growth inhibition) [12]: 99%
MIC99 [13]: 100 µg/mL
MIC99 [14]: 100 µg/mL
MIC [15]: 6.25 µg/mL (≈ 11.9 µM)

O=C1C(=O)N(CCCSC(=S)N2CCN(c3ccc(Cl)c(Cl)c3)CC2)c2ccc(Cl)cc21
MIC [1]: > 6.25 µg/mL
MIC99 [2]: 500 µg/mL
MIC99 [3]: > 1000 µg/mL
MIC99 [4]: 250 µg/mL
inhibition at 6.25 µg/mL [5]: 91%
MIC99 [6]: 200 µg/mL
MIC99 [7]: 500 µg/mL
MIC99 [8]: 500 µg/mL
MIC99 [9]: > 1000 µg/mL
Activity [10]: Non-toxic
MIC [11]: 0.2 µg/mL (≈ 0.378 µM)
inhibition (Growth inhibition) [12]: 92%
MIC99 [13]: 500 µg/mL
MIC99 [14]: 500 µg/mL
MIC [15]: 250 µg/mL (≈ 473 µM)

O=C(O)c1cn(C2CC2)c2cc(N3CCNCC3)c(F)cc2c1=O [CIPROFLOXACIN]
MIC99 [2]: ≤ 25 µg/mL
MIC99 [4]: ≤ 25 µg/mL
MIC99 [6]: ≤ 25 µg/mL
MIC99 [7]: ≤ 50 µg/mL
MIC99 [8]: ≤ 25 µg/mL
MIC99 [13]: ≤ 50 µg/mL

O=C1C(=O)N(CCCSC(=S)N2CCN(c3ccc(Cl)c(Cl)c3)CC2)c2ccccc21
MIC [1]: > 6.25 µg/mL
MIC99 [2]: 500 µg/mL
MIC99 [3]: 500 µg/mL
MIC99 [4]: 200 µg/mL
inhibition at 6.25 µg/mL [5]: 96%
MIC99 [6]: 500 µg/mL
MIC99 [7]: 100 µg/mL
MIC99 [8]: 500 µg/mL
MIC99 [9]: > 1000 µg/mL
Activity [10]: Non-toxic
MIC [11]: 0.089 µg/mL (≈ 0.18 µM)
inhibition (Growth inhibition) [12]: 97%
MIC99 [13]: 500 µg/mL
MIC99 [14]: > 1000 µg/mL
MIC [15]: 200 µg/mL (≈ 404 µM)

S=C(SSC(=S)N1CCN(c2ccc(Cl)c(Cl)c2)CC1)N1CCN(c2ccc(Cl)c(Cl)c2)CC1
MIC [1]: 6.25 µg/mL (≈ 10.2 µM)
MIC99 [2]: 200 µg/mL
MIC99 [3]: 100 µg/mL
MIC99 [4]: 100 µg/mL
inhibition at 6.25 µg/mL [5]: 99%
MIC99 [6]: 100 µg/mL
MIC99 [7]: 100 µg/mL
MIC99 [8]: 62.5 µg/mL
MIC99 [9]: 100 µg/mL
Activity [10]: Non-toxic
MIC [11]: 0.25 µg/mL (≈ 0.408 µM)
inhibition (Growth inhibition) [12]: 98%
MIC99 [13]: 62.5 µg/mL
MIC99 [14]: 200 µg/mL
MIC [15]: 6.25 µg/mL (≈ 10.2 µM)

CCN(CC)CCCC(C)Nc1ccnc2cc(Cl)ccc12 (configuration not stated) [CHLOROQUINE]
MIC [11]: 0.125 µg/mL (≈ 0.391 µM)

CC1(C)S[C@@H]2[C@H](NC(=O)[C@H](N)c3ccccc3)C(=O)N2[C@H]1C(=O)O [AMPICILLIN]
MIC99 [2]: 250 µg/mL
MIC99 [4]: 100 µg/mL
MIC99 [6]: 100 µg/mL
MIC99 [7]: 100 µg/mL
MIC99 [8]: 100 µg/mL
MIC99 [13]: 100 µg/mL
